Values after ≈ are worked out from the molar mass of the structure shown. Values joined by “and” are separate entries in the source; they are usually repeats but may differ in a detail not shown here. Equal values may be shown once. Read-outs that look alike come from different tables or passages of the source.

A word on the Ki: it is a measure of affinity in units of concentration, obtained from inhibition or displacement. One may read the solubility as the concentration that dissolves in the medium under given conditions. A high value points to much dissolved substance.

Data set [1] addresses T1, MIF (Homo sapiens (Human), UniProt P14174). The data set is described as follows: Tautomerase assay using 4-hydroxyphenylpyruvate (HPP), initial virtual screening study. Conditions: at 50 μM; HPP substrate. Type of data set: biochemical. From the text: Success in the past has come from exchange of the phenol for a 6:5 fused heteroaromatic incorporating a pyrrole or pyrazole that retains the hydrogen-bond donating character of phenol. However, the MIF active site is too constricted near Asn97 for this approach to be viable; addition of a methyl group ortho to the hydroxyl group for the compound in FIG. 1 leads to a ca. 100-fold loss in activity. Instead, interest has focused on direct replacement of the phenol by a pyrazole. […] Thus, an alternative series from the virtual screening and from de novo design was pursued, which provided the biaryltriazoles including 2. However, interest in 5 was renewed since in another phenol-containing inhibitor series rapid metabolic glucoronidation and sulfation were observed. It was decided to retest 5 in an HPP tautomerase assay using optimized protocols.

Data set [2] can be described thus: Aqueous solubility, shake-flask method. The data set is classed as physicochemical. Conditions: Britton-Robinson buffer at pH 6.5; for solubility at 48 h: 30 °C, aqueous buffer, thermodynamic from solid. On the procedure:
Aqueous solubility values of selected compounds were obtained via the shake-flask method. The solid sample (1-4 mg) was suspended in 1.5-2.0 mL Britton-Robinson (BR) buffer (0.04 M acetic acid, 0.04 M phosphoric acid, 0.04 M boric acid, pH 6.5). The mixture, containing excess undissolved compound, was stirred at 30° C. for 48 hours. The saturated solution was separated from the precipitate by filtration through a 0.45 μm polyethersulfone membrane (VWR International). The filtrate was diluted with BR buffer if necessary, then cut with an equal volume of DMSO. UV-vis absorbance was measured with an Agilent 8453 UV-visible Spectroscopy System (200-900 nm). Calibration curves were prepared with sample concentrations ranging from 0.24 μg/mL-0.25 mg/mL in 50:50 DMSO/BR buffer. Reported solubility results are the average values of two shake-flask experiments run in parallel. Piroxicam (purchased from Sigma-Aldrich) was used as a control, using BR buffer at pH 3.73.
The compounds reported here are listed in Table 2 along with the results from the tautomerase assay. The identity of assayed compounds was confirmed by ^1H and ^13C NMR and high-resolution mass spectrometry; HPLC analyses established purity as >95%. As in prior studies, the inhibition constants Ki were determined using HPP as the substrate. Inhibitory activity is monitored by measuring formation of the borate complex of the enol product at 305 nm using a Tecan Infinite F500 plate reader. In addition, the aqueous solubilities of several compounds were measured with a shake-flask procedure. Saturated solutions are filtered (polyethersulfone syringe, 0.2 μm pore) and analyzed by UV-vis spectroscopy (Agilent 8453).

Data set [3] has as its target T1, MIF. The data set is described as follows: HPP tautomerase assay (inhibition of the tautomerase activity of MIF). The data set is classed as biochemical. As to the method:
Inhibition of the tautomerase activity of MIF was measured using the substrate 4-hydroxyphenyl pyruvic acid (HPP) in a procedure largely adapted from previous reports. A solution of HPP (10 mM) in acetate buffer (0.5 M ammonium acetate, pH adjusted to 6.0) was prepared and allowed to incubate overnight in the dark at room temperature to allow for equilibration of the keto and enol forms. Following the incubation period, the HPP solution was stored at 4° C. and used for no more than a week. […] A negative control (containing water and DMSO in lieu of protein and inhibitor, respectively) and a positive control (containing DMSO in lieu of inhibitor) were also prepared. The reaction began upon the addition of HPP solution (final concentration: 1.0 mM and 2.5 mM). […] Absorbance was measured three times for each [inhibitor]-[HPP] combination. […] Reported Ki values represent the average value obtained from two assays performed on different days. (R)-ISO-1 (purchased from Santa Cruz Biotechnology) was used as a control.
Recombinant human MIF was expressed and purified according to published protocols. Briefly, for the purification of MIF, E. coli cell pellets were suspended in lysis buffer (20 mM Tris, pH 7.5; 20 mM sodium chloride; 10% glycerol; 2 mM magnesium chloride; 1 cOmplete mini protease inhibitor cocktail tablet per 250 mL of buffer). The solution was sonicated and centrifuged at 27,000G for 30 mins. The supernatant was filtered through a 0.22 μm syringe filter and loaded on a GE Healthcare Hi-Trap SP HP column in sequence with a GE Healthcare Hi-Trap Q SP column equilibrated with a buffer composed of 20 mM NaCl and 20 mM Tris, pH 7.5. […] To achieve highest purity, the flow-through was further purified with a GE Healthcare Superdex 200 column. The purified protein was concentrated with a 10 kDa centrifugal filter unit to 30 mg/mL, flash-frozen in liquid nitrogen, and stored at −80° C.
As in prior studies, the inhibition constants Ki were determined using HPP as the substrate. […] In addition, the aqueous solubilities of several compounds were measured with a shake-flask procedure.

Where [4] appears, read: HPP as substrate, MIF tautomerase, read-out: Experimental inhibition constants, Ki.
Where [5] appears, read: Table 3, HPP as substrate, unit inferred, read-out: HPP Ki.

T1 sequence (P14174 2-115): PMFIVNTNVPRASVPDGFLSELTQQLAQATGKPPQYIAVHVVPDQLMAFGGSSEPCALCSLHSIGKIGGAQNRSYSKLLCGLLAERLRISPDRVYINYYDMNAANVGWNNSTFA

Take `O=C(O)c1cccc(-c2cn[nH]c2)c1` [Compound 5, reference compound]: the maximum inhibition on MIF [1] is 30%. Further, the aqueous solubility in data set [2] was 927+88 μg/mL. For `O=C(O)c1cc(-c2cn[nH]c2)ccc1Oc1ccc2ccccc2c1` [Compound 8g, 2-(Naphthalen-2-yloxy)-5-(1H-pyrazol-4-yl)benzoic acid], the inhibition constant (Ki) at MIF [3] (setting [4]) turned out to be 4300 nM. Besides, the solubility at 48 h in data set [2] stood at 739 µg/mL (≈ 2240 µM). In the same order, the values of `NS(=O)(=O)c1cc(-c2cn[nH]c2)ccc1Oc1ccc2ccccc2c1` [Compound 8i, 2-(Naphthalen-2-yloxy)-5-(1H-pyrazol-4-yl)benzenesulfonamide] are 5600 nM and 55.2 µg/mL (≈ 151 µM). Regarding `O=C(O)c1cc(-c2c[nH]nc2F)ccc1Oc1ccc2ccccc2c1` [Compound 8n, 5-(3-Fluoro-1H-pyrazol-4-yl)-2-(naphthalen-2-yloxy)benzoic acid], the concentration in solution in data set [2] (solubility at 48 h) came to 681 µg/mL (≈ 1960 µM). With `CCOc1ccc(-c2cccc(Oc3ccc(-c4c[nH]nc4F)cc3C(=O)O)c2)cc1` [Compound 8w, 2-((4′-Ethoxy-[1,1′-biphenyl]-3-yl)oxy)-5-(3-fluoro-1H-pyrazol-4-yl)benzoic acid], the Ki on MIF [3] was roughly 70 nM; at MIF [3] (setting [4]), 75 nM. This compound yielded a solubility at 48 h in data set [2] of 1.7 ± 0.7 µg/mL (≈ 4.06 µM). On to `O=C(O)c1cc(-c2c[nH]nc2F)ccc1Oc1cccc(-c2ccc(OCCCN3CCOCC3)cc2)c1` [Compound 8x, 5-(3-Fluoro-1H-pyrazol-4-yl)-2-((4′-(3-morpholinopropoxy)-[1,1′-biphenyl]-3-yl)oxy)benzoic acid], for which the solubility at 48 h in data set [2] is 34.6 µg/mL and 67 µM. In the case of `O=C(O)c1cc(-c2c[nH]nc2F)ccc1Oc1cccc(F)c1` [Compound 9t, 5-(3-fluoro-1H-pyrazol-4-yl)-2-(3-fluorophenoxy)benzoic acid], the inhibitory constant (Ki) at MIF [3] (setting [5]) came to 2100 nM. Still for that read-out and setting: the value for `Cc1ccc2ccc(Oc3ccc(-c4cn[nH]c4)cc3C(=O)O)cc2c1` [Compound 9u, 2-((7-methylnaphthalen-2-yl)oxy)-5-(1H-pyrazol-4-yl)benzoic acid] was 1900 nM; that for `O=C(O)c1cc(-c2c[nH]nc2F)ccc1Oc1cc2c3c(cccc3c1)CC2` [Compound 9v, 2-((1,2-dihydroacenaphthylen-4-yl)oxy)-5-(3-fluoro-1H-pyrazol-4-yl)benzoic acid] was 100 nM. Still for that read-out and setting: then `O=C(O)c1cc(-c2c[nH]nc2F)ccc1Oc1cccc(C(F)(F)F)c1` [Compound 9w, 5-(3-fluoro-1H-pyrazol-4-yl)-2-(3-(trifluoromethyl)phenoxy) benzoic acid], with 710 nM; and `O=C(O)c1cc(-c2c[nH]nc2F)ccc1Oc1ccc2ccc(C3CC3)cc2c1` [Compound 9x, 2-((7-cyclopropylnaphthalen-2-yl)oxy)-5-(3-fluoro-1H-pyrazol-4-yl)benzoic acid], with 150 nM; and `O=C(O)c1cc(-c2c[nH]nc2F)ccc1Oc1ccc2c(c1)CCCC2` [Compound 9y, 5-(3-fluoro-1H-pyrazol-4-yl)-2-((5,6,7,8-tetrahydronaphthalen-2-yl)oxy)benzoic acid], with 260 nM.

As to `O=C(O)c1cc(-c2c[nH]nc2F)ccc1Oc1ccc2c(C3CC3)cccc2c1` [Compound 9z, 2-((5-cyclopropylnaphthalen-2-yl)oxy)-5-(3-fluoro-1H-pyrazol-4-yl)benzoic acid], at MIF [3] (setting [5]), the Ki is 110 nM.
